This is an account of results in patent EP1439394A1, “Method and apparatus for etablishing ADME profiles in the early stage of develloppment of active substances” (priority 2002, dated 2004).

The target of one data set is HSA (Homo sapiens, UniProt P02768). Conditions: standard ligands immobilised on the array; protein not named, HSA per Example 2 / Abb. 2.
In another data set the target is CYP3A4 (Homo sapiens, UniProt P08684). The following applies: standard ligands immobilised on the array; CYP3A4 per Example 3 / Abb. 3.
Chain of CYP3A4 (P08684 whole entry): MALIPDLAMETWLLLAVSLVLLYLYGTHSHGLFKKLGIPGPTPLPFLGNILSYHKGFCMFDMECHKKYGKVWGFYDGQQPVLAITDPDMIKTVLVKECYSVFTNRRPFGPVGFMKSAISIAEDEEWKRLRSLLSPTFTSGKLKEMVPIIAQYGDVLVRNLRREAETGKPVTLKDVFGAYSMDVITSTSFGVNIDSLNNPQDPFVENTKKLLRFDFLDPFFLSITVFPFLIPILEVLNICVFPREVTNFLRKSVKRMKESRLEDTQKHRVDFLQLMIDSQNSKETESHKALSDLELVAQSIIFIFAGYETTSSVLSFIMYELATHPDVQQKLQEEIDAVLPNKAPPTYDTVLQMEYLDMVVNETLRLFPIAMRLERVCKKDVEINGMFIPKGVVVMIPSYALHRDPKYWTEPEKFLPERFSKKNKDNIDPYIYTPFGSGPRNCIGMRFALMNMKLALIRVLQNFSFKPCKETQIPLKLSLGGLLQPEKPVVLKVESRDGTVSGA

Chain of HSA (P02768 25-609): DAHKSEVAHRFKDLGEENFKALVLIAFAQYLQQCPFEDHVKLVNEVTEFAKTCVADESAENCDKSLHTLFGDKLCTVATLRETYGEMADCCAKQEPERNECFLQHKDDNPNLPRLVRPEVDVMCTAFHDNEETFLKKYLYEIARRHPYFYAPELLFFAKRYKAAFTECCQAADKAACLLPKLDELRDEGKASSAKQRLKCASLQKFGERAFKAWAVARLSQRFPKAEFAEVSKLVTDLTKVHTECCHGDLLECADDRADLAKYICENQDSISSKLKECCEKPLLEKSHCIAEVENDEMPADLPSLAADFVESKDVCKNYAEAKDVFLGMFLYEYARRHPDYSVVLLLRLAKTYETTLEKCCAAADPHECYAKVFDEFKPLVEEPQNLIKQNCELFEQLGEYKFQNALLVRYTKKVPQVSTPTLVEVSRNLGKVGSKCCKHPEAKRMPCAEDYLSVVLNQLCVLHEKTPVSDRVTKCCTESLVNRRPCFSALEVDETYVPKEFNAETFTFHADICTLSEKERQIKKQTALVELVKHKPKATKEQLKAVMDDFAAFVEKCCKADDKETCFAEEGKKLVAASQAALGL
Excerpt for CYP3A4: (§1) Wird SPR als Detektionsmethode eingesetzt, ist es vorteilhaft, zunächst eine Messung des Microarrays ohne Lösung (Luftmessung) durchzuführen und danach eine Messung des Microarrays mit der Pufferlösung durchzuführen, in der anschließend das ADME relevante Biomolekül gelöst wird (Puffermessung). Anschliessend wird die Pufferlösung gegen eine Lösung des ADME relevanten Biomoleküls in demselben Puffer ausgetauscht und nochmals gemessen (Proteinmessung). Die Puffermessungen und die Proteinmessungen werden mittels der Luftmessung normiert und anschließend wird die Differenz zwischen den beiden Minima der Proteinmessung und der Puffermessung ermittelt.
(§2) Die so ermittelte Verschiebung (in nm) zwischen den beiden (ggf. normierten) Messungen ist ein Maß für die Bindungsstärke zwischen den immobilisierten Liganden und dem ADME relevanten Biomolekül (s. Beispiel 1).
Die Verschiebung der Wellenlänge wurde nach 120 min aufgezeichnet. Durch die eindeutige Zuordnung der (x,y)-Koordinate zu einer bestimmten Verbindung ist diese eindeutig identifizierbar.
3 gezeigten Standardliganden und deren Festphasenscreening gegen CYP3A4 eine Klassifizierung in sehr schwach (<1,6 nm), schwach (1,6-3,2 nm), mittel (3,2-4,8 nm), stark (4,8-6,4 nm) und sehr stark (>6,4 nm) durchgeführt. Anhand der bekannten Metabolismuseigenschaften der Standardliganden ist eine Zuordnung dieser ADME Eigenschaft für nicht bekannte Wirkstoffvorstufen möglich.
Excerpt for HSA: as §1, §2
Anschließend wurde der Chip je dreifach in 1. Methanol/1%TFA, 2. H2O/0,1% TFA und 3. H2O/0,02M HOAc gewaschen sowie unter Stickstoffstrom getrocknet.
Alle Verbindungen weisen eine Carboxy-Funktionalität auf, die mit einem Amin umgesetzt wurden, das endständig eine Thiolgruppe zur Anbindung an die Maleimid-Kopfgruppe des Ankers trägt.
Die Wirkstoffvorstufen, die so auf die Oberfläche gebracht werden, sind in einer 40 µM Lösung aus 0,2 M Phosphatpuffer (Pi), 5 mM EDTA und 20% (v/v) EG, pH 7.0, gelöst. Das Pinning Tool setzt ca. 10 nl pro Spot ab, so daß in jedem Spot ein hoher Überschuß des Wirkstoffvorstufen-Tag Konjugates gegenüber der oberflächengebundenen Maleimid-Gruppe gewährleistet wird und somit eine vollständige Belegung der Maleimid-Gruppen erreicht werden kann. In den freien Bereichen wurden die Maleimid-Gruppen anschließend durch Inkubation des Chips in 0,2 M Pi, pH 7.0, 10mM Mesh für 30 min abgesättigt. Danach wurde je dreimal mit 1. H2O/0,02M HOAc, 2. MeOH/H2O und 3. 2-Propanol gewaschen sowie unter Stickstoffstrom getrocknet.
Die Verschiebung der Wellenlänge wurde nach 120 min aufgezeichnet. Durch die eindeutige Zuordnung der (x,y)-Koordinate zu einer bestimmten Verbindung ist diese eindeutig identifizierbar. Wirkstoffvorstufen mit hohen Verschiebungswerten sind kritisch im Hinblick auf die weitere Wirkstoffentwicklung.
Das Festphasenscreening wurde durchgeführt wie in Beispiel 1 beschrieben.

As for `C=C[C@H]1C[N@@]2CC[C@H]1C[C@@H]2[C@@H](O)c1ccnc2ccc(OC)cc12` [Chinidin], the “Klassifizierung der Standardliganden für die Bestimmung von Distributionsparametern” value on HSA is reported as “schwach (schwach (0,7-1,4 nm))”. The same measure, in the same setting: the value for `C=C[C@H]1C[N@@]2CC[C@H]1C[C@H]2[C@H](O)c1ccnc2ccc(OC)cc12` [Chinin] was “schwach (schwach (0,7-1,4 nm))”. In the case of `CC(=O)[C@H]1CC[C@H]2[C@@H]3CCC4=CC(=O)CC[C@]4(C)[C@H]3CC[C@]12C` [Progesteron], the “Klassifizierung der Standardliganden für die Bestimmung von Metabolismusparametern” value on CYP3A4 was “sehr stark (sehr stark (>6,4 nm))”. Consider `CNCCCN1c2ccccc2CCc2ccccc21` [Desimpramin], for which the “Klassifizierung der Standardliganden für die Bestimmung von Metabolismusparametern” value on CYP3A4 is “schwach (schwach (1,6-3,2 nm))”. In addition, the “Klassifizierung der Standardliganden für die Bestimmung von Distributionsparametern” value at HSA is “mittel (mittel (1,4-2,1 nm))”. The corresponding values for `CNCCC=C1c2ccccc2CCc2ccccc21` [Nortriptylin] are “schwach (schwach (1,6-3,2 nm))” and “stark (stark (2,1-2,8 nm))”.
